From patent publication US20220242846A1, “ISOINDOLINONE COMPOUNDS” (Monte Rosa Therapeutics AG, priority 2019, published 2022)

biological target: T1, Full length wild-type cereblon CRBN (Homo sapiens, UniProt Q96SW2); test: Fluorescence polarization (FP) assay indicating cereblon binding; details: CRBN 80.0 nM, fluorescent probe 5 nM, FP measured after 12 hours; read-out: rFP IC50
T1 construct: Full length wild-type cereblon CRBN (80.0 nM, 10 μL) was incubated in assay buffer
Excerpt: Protocol for Fluorescent Polarization Assay
Compound activity was monitored in a fluorescence polarization (FP) homogeneous assay using 1-[5-({2-[2-(2-{[2-(2,6-dioxopiperidin-3-yl)-1,3-dioxo-2,3-dihydro-1H-isoindol-4-yl]oxy}acetamido)ethoxy]ethyl}carbamoyl)pentyl]-3,3-dimethyl-2-[(1E,3E)-5-[(2E)-1,3,3-trimethyl-5-sulfo-2,3-dihydro-1H-indol-2-ylidene]penta-1,3-dien-1-yl]-3H-indol-1-ium-5-sulfonate as a fluorescent probe. Unless otherwise stated, all reagents were purchased from Sigma Aldrich. Enzymatic reactions were conducted in Perkin-Elmer Black 384 well ProxiPlate Plus (catalogue no. 6008269) in 10 μL total volume. Full length wild-type cereblon CRBN (80.0 nM, 10 μL) was incubated in assay buffer containing 20 mM HEPES (pH 8.0), […], 0.5 mM TCEP and 0.05% Tween 20 in the presence or absence of compound (300 nL). Inhibitors were stored as 10 mM DMSO stocks in an inert environment (low humidity, dark, low oxygen, room temperature) using the Storage Pod System. Compounds and DMSO were dispensed using the Echo E5XX (Labcyte Inc. USA) to give concentrations from 300 to 0.937 or 3000 to 9.3 nM in a 12 data point curve. […] Following incubation at room temperature for […], the assay was initiated by dispensing the probe to a final concentration of 5 nM (2.5 nL of a 20 μM stock) using the Echo E5XX. FP was measured after a period of 12 hours using a Pherastar plate reader (BMG Labtech, Germany) exciting at 590 nm and measuring the amount of parallel and perpendicular light at 675 nm. The FP signal was subsequently normalized to the no-compound control (i.e., DMSO). Analysis and IC50 values were derived using Dotmatics (Dotmatics UK) software.

T1 sequence (Q96SW2 whole entry): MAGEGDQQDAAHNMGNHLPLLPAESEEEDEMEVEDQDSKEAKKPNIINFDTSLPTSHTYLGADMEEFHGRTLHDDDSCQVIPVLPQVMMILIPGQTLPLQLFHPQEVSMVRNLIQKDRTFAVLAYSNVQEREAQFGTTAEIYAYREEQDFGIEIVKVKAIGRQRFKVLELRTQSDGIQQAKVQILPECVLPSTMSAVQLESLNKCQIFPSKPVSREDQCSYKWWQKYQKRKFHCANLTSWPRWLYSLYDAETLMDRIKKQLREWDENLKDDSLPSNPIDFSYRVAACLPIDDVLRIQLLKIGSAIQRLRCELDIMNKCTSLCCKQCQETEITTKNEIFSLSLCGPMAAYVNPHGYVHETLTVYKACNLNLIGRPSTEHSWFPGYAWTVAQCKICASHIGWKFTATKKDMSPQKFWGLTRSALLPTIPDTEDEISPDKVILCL

| IC50 | Structure (SMILES) |
| --- | --- |
| 1520 nM | Cc1ncc(NC(=O)NCc2ccc3c(c2)C(=O)N(C2CCC(=O)NC2=O)C3)cc1Cl (centres unmarked) [Compound 157] |
| 304 nM | O=C1CCC(N2Cc3ccc(CNC(=O)Nc4nccs4)cc3C2=O)C(=O)N1 (centres unmarked) [Compound 92] |
| 1470 nM | CC(C)(C)c1ccc(NC(=O)NCc2ccc3c(c2)C(=O)N(C2CCC(=O)NC2=O)C3)cn1 (centres unmarked) [Compound 163] |
| 317 nM | CN(C)c1ccc(NC(=O)NCc2ccc3c(c2)C(=O)N(C2CCC(=O)NC2=O)C3)cc1 (centres unmarked) [Compound 79] |
| 387 nM | Cn1cc(NC(=O)NCc2ccc3c(c2)C(=O)N(C2CCC(=O)NC2=O)C3)cn1 (centres unmarked) [Compound 83] |
| 919 nM | Nc1ccc(NC(=O)NCc2ccc3c(c2)C(=O)N(C2CCC(=O)NC2=O)C3)cc1 (centres unmarked) [Compound 81] |
| 225 nM | CN(C)c1cccc(NC(=O)NCc2ccc3c(c2)C(=O)N(C2CCC(=O)NC2=O)C3)c1 (centres unmarked) [Compound 89] |

The next lines start with the molecule.

| Structure (SMILES) | IC50 |
| --- | --- |
| Cc1ccc(NC(=O)NCc2ccc3c(c2)C(=O)N(C2CCC(=O)NC2=O)C3)cc1OC(F)F (centres unmarked) [Compound 159] | 676 nM |
| Cc1c(Cl)cc(NC(=O)NCc2ccc3c(c2)C(=O)N(C2CCC(=O)NC2=O)C3)cc1CN1CCN2CCC1C2 (centres unmarked) [Compound 154] | 688 nM |
| O=C1CCC(N2Cc3ccc(CNC(=O)Nc4ccc(C(F)F)cc4)cc3C2=O)C(=O)N1 (centres unmarked) [Compound 114] | 443 nM |
| Cc1ccc(CNC(=O)NCc2ccc3c(c2)C(=O)N(C2CCC(=O)NC2=O)C3)cc1Cl (centres unmarked) [Compound 152] | 284 nM |
| Cc1c(Cl)cc(NC(=O)NCc2ccc3c(c2)C(=O)N(C2CCC(=O)NC2=O)C3)cc1CN1CC2CCC(C1)O2 (centres unmarked) [Compound 140] | 559 nM |
| Cc1c(Cl)cc(NC(=O)NCc2ccc3c(c2)C(=O)N(C2CCC(=O)NC2=O)C3)cc1CC1COC(C)(C)OC1 (centres unmarked) [Compound 142] | 594 nM |
| Cc1c(Cl)cc(NC(=O)NCc2ccc3c(c2)C(=O)N(C2CCC(=O)NC2=O)C3)cc1C12CC1CN(C)C2 (centres unmarked) [Compound 155] | 581 nM |
| Cc1c(Cl)cc(NC(=O)NCc2ccc3c(c2)C(=O)N(C2CCC(=O)NC2=O)C3)cc1C[C@H]1CO[C@@H](C)OC1 (some centres unmarked) [Compound 145] | 741 nM |
| Cc1c(Cl)cc(NC(=O)NCc2ccc3c(c2)C(=O)N(C2CCC(=O)NC2=O)C3)cc1N1CCOCC1 (centres unmarked) [Compound 122] | 657 nM |
| O=C1CCC(N2Cc3ccc(CNC(=O)Nc4cc(OC(F)(F)F)ccn4)cc3C2=O)C(=O)N1 (centres unmarked) [Compound 164] | 1600 nM |
| Cc1cc(Cl)c(NC(=O)NCc2ccc3c(c2)C(=O)N(C2CCC(=O)NC2=O)C3)c(C)c1Cl (centres unmarked) [Compound 96] | 222 nM |
| Cc1c(Cl)cc(NC(=O)NCc2ccc3c(c2)C(=O)N(C2CCC(=O)NC2=O)C3)cc1CN1CCC(N(C)C)CC1 (centres unmarked) [Compound 133] | 252 nM |

biological target: GSPT1 (Homo sapiens, UniProt P15170+Q96SW2); test: Immunofluorescence assay for GSPT1 degradation in CAL-51 cells; type: cell-based; set-up: CAL-51 cells were purchased from DSMZ (cat. Number ACC302); endogenous in cells; host or cells: CAL-51 (DSMZ ACC302); details: GSPT1 degradation, compound treatment 6 hours, read-out: DC50
Method: CAL-51 cells were purchased from DSMZ (cat. Number ACC302), sub-cultured in 90% Dulbecco's MEM (4.5 g/L glucose, Gibco 11965) +10% heat inactivated FBS (BioConcept, 2-01F136I) and incubated at 37° C., 5% CO2. For the assay, imaging microtiterplate Cell Carrier 96 Ultra (Perkin Elmer 6055302) were pre-coated with Fibronectin (Sigma F085, 300 at 0.2 μg/ml) in PBS (1000, Gibco 14190) for 45 min at room temperature, rinsed with PBS and CAL-51 cells (30K cells/well) were plated and let to adhere overnight. Cells were treated with compounds typically using a serial dilution ranging from 30 μM to 0.1 nM for 6 hours. Compounds were stored at 10 mM DMSO stocks. Vehicle (DMSO), positive (CC-885, 10 μM) and rescue controls (positive control plus 0.2 μM bortezomib) were also included at this stage. Cells were subsequently rinsed with PBS and fixed in 10% Formalin solution (50 μl, Sigma HT5011)) for 20 mins at room temperature. Following three consecutive PBS washes (100 μl), cells were permeabilized in 0.1% Triton X-100 in PBS (Sigma 93443, 50 μl) for 15 mins at room temperature. Following three further PBS washes, 50 μl blocking buffer (1% BSA, Sigma A4503, in PBS) was added for 45 min for signal-to-noise reduction. Primary antibody (human GSPT1, Sigma HPA052488) was diluted in blocking buffer (dil. 1/300, 35 μl/well) and incubated with the cells overnight at 4° C. After three PBS washes, Alexa-fluor 488 coupled secondary antibodies (Invitrogen, A32731, dil. 1/1000), Alexa-fluor 647-Phalloïdin (Invitrogen, A22287, dil. 1/200) and DAPI (Thermo, #62248, dil.1/1000) were diluted in blocking buffer and incubated with the samples for 2 hours at room temperature. After three final PBS washes, samples were conserved in 1000 PBS in the dark, until measurement. Image acquisition was performed on the Operetta High-Content Imager (Perkin-Elmer). Fluorescence intensity of Alexa-Fluor 488 (GSPT1), Alexa-Fluor 647 (Actin) and DAPI (Nucleus) were measured. For the determination of GSPT1 DC50 values, a custom algorithm implemented in the PerkinElmer image analysis software Harmony-Acapella® was developed. After user-defined setting of adjustment parameters, the analysis was run identically without human intervention for all image fields. DAPI staining of the nuclei was used to determine the location of cells using standard nuclei detection modules. Segmentation artifacts were removed by threshold-based filters for area, roundness and intensity. The outline of the cells was determined analogously from the sum of the normalized, smoothed DAPI and Actin channel, starting from each nucleus. The Alexa-Fluor 488 (GSPT1) signal intensity in each cell was finally measured, in order to obtain a Mean intensity per cell. GSPT1 degradation (DC50) was calculated after normalization to controls and data import in CDD vault Database, using non-linear regression. Activity for GSPT1 Degradation Table 3 assigns each compound a code indicating the ability for GSPT1 degradation: A, B or C. According to the code, A represents a DC50 value of ≤100 nM, B represents a DC50 value >100 nM and ≤300 nM and C represents a DC50 value of >300 nM.

GSPT1, sequence (P15170 whole entry): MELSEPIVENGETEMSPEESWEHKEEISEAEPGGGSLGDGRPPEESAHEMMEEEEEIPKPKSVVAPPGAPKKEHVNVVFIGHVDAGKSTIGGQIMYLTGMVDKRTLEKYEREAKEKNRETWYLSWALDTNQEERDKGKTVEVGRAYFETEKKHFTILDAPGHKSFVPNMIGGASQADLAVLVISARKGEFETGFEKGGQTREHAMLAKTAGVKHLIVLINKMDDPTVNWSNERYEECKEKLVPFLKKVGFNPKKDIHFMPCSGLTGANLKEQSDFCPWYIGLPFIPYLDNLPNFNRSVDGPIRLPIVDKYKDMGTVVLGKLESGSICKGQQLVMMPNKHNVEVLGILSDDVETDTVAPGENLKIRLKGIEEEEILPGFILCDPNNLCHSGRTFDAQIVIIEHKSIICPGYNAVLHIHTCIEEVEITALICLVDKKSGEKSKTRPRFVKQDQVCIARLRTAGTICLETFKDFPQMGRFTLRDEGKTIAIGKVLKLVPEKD
GSPT1, sequence (Q96SW2 whole entry): as the sequence (Q96SW2 whole entry) above
GSPT1, sequence (Q16531 2-1140 partner limits assumed): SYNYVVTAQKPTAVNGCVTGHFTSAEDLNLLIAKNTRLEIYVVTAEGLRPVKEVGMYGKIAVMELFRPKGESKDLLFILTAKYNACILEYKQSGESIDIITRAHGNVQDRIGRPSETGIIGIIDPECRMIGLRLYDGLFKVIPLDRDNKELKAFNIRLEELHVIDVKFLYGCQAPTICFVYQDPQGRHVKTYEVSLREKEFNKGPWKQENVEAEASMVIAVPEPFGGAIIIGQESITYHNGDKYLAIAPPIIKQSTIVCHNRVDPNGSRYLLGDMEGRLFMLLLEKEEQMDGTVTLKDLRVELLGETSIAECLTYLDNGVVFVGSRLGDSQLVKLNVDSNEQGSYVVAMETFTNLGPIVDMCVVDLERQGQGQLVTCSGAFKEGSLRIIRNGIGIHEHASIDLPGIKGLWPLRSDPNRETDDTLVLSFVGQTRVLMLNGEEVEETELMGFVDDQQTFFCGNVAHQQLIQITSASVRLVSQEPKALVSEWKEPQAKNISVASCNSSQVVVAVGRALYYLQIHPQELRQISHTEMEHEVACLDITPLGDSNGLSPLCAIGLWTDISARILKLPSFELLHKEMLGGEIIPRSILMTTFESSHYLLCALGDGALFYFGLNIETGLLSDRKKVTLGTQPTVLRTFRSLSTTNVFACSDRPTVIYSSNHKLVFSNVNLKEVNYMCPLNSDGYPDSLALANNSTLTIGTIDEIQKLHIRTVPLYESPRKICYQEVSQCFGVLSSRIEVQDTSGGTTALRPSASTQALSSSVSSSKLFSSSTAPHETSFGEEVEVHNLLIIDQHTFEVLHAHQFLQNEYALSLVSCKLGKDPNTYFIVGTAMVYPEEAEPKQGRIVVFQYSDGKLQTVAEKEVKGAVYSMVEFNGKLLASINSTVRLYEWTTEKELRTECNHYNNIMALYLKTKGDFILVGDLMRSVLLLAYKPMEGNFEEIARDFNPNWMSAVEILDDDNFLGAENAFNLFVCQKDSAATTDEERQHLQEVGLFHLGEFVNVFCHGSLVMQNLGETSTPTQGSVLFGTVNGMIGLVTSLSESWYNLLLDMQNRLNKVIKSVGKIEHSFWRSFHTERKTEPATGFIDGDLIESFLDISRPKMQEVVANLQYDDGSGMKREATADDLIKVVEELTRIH

| Structure (SMILES) | DC50 |
| --- | --- |
| Cc1c(Cl)cc(NC(=O)NCc2ccc3c(c2)C(=O)N(C2CCC(=O)NC2=O)C3)cc1C12CC1CN(C)C2 (centres unmarked) [Compound 155] | 176 nM |
| CN(C)c1cccc(NC(=O)NCc2ccc3c(c2)C(=O)N(C2CCC(=O)NC2=O)C3)c1 (centres unmarked) [Compound 89] | 198 nM |

same assay, conditions: compound treatment 6 hours, read-out: Code: activity for GSPT1 degradation (DC50)

| DC50 | Structure (SMILES) |
| --- | --- |
| > 300 nM | Cc1ncc(NC(=O)NCc2ccc3c(c2)C(=O)N(C2CCC(=O)NC2=O)C3)cc1Cl (centres unmarked) [Compound 157] |
| > 300 nM | O=C1CCC(N2Cc3ccc(CNC(=O)Nc4nccs4)cc3C2=O)C(=O)N1 (centres unmarked) [Compound 92] |
| ≤ 100 nM | CC(C)(C)c1ccc(NC(=O)NCc2ccc3c(c2)C(=O)N(C2CCC(=O)NC2=O)C3)cn1 (centres unmarked) [Compound 163] |
| > 300 nM | CN(C)c1ccc(NC(=O)NCc2ccc3c(c2)C(=O)N(C2CCC(=O)NC2=O)C3)cc1 (centres unmarked) [Compound 79] |
| > 300 nM | Cn1cc(NC(=O)NCc2ccc3c(c2)C(=O)N(C2CCC(=O)NC2=O)C3)cn1 (centres unmarked) [Compound 83] |
| > 300 nM | Nc1ccc(NC(=O)NCc2ccc3c(c2)C(=O)N(C2CCC(=O)NC2=O)C3)cc1 (centres unmarked) [Compound 81] |
| 100 to 300 nM | CN(C)c1cccc(NC(=O)NCc2ccc3c(c2)C(=O)N(C2CCC(=O)NC2=O)C3)c1 (centres unmarked) [Compound 89] |

Continued, molecule first:

| Structure (SMILES) | DC50 |
| --- | --- |
| Cc1ccc(NC(=O)NCc2ccc3c(c2)C(=O)N(C2CCC(=O)NC2=O)C3)cc1OC(F)F (centres unmarked) [Compound 159] | > 300 nM |
| O=C1CCC(N2Cc3ccc(CNC(=O)Nc4ccc(C(F)F)cc4)cc3C2=O)C(=O)N1 (centres unmarked) [Compound 114] | > 300 nM |
| Cc1ccc(CNC(=O)NCc2ccc3c(c2)C(=O)N(C2CCC(=O)NC2=O)C3)cc1Cl (centres unmarked) [Compound 152] | > 300 nM |
| Cc1c(Cl)cc(NC(=O)NCc2ccc3c(c2)C(=O)N(C2CCC(=O)NC2=O)C3)cc1CC1COC(C)(C)OC1 (centres unmarked) [Compound 142] | ≤ 100 nM |
| Cc1c(Cl)cc(NC(=O)NCc2ccc3c(c2)C(=O)N(C2CCC(=O)NC2=O)C3)cc1C12CC1CN(C)C2 (centres unmarked) [Compound 155] | 100 to 300 nM |
| Cc1c(Cl)cc(NC(=O)NCc2ccc3c(c2)C(=O)N(C2CCC(=O)NC2=O)C3)cc1C[C@H]1CO[C@@H](C)OC1 (some centres unmarked) [Compound 145] | ≤ 100 nM |
| Cc1c(Cl)cc(NC(=O)NCc2ccc3c(c2)C(=O)N(C2CCC(=O)NC2=O)C3)cc1N1CCOCC1 (centres unmarked) [Compound 122] | ≤ 100 nM |
| O=C1CCC(N2Cc3ccc(CNC(=O)Nc4cc(OC(F)(F)F)ccn4)cc3C2=O)C(=O)N1 (centres unmarked) [Compound 164] | > 300 nM |
| Cc1cc(Cl)c(NC(=O)NCc2ccc3c(c2)C(=O)N(C2CCC(=O)NC2=O)C3)c(C)c1Cl (centres unmarked) [Compound 96] | > 300 nM |
| Cc1c(Cl)cc(NC(=O)NCc2ccc3c(c2)C(=O)N(C2CCC(=O)NC2=O)C3)cc1CN1CCC(N(C)C)CC1 (centres unmarked) [Compound 133] | > 300 nM |
